Data reported in patent US10770169B2, “Method of providing a treatment to a subject based on a dynamic pathway map” (THE REGENTS OF THE UNIVERSITY OF CALIFORNIA, priority 2010, dated 2020).

System: panel of 55 breast cancer cell lines
Assay: Cell growth inhibition assay (Cell Titer Glo, 72 h, 9 doses; GI50, TGI, LC50)
Type: cell-based, human
Details: value is the negative log10 of mol/L

## O=C1NC(=O)/C(=C/c2ccc3nccc(-c4ccncc4)c3c2)S1 [GSK1059615B]
Cell line 600MPE, censored GI50 values
  GI50: 6.31
Cell line 600MPE
  GI50: 6.31
Cell line AU565, censored GI50 values
  GI50: 6.32
Cell line AU565
  GI50: 6.32
Cell line BT474, censored GI50 values
  GI50: 6.80
Cell line BT549, censored GI50 values
  GI50: 5.73
Cell line CAMA1, censored GI50 values
  GI50: 5.77
Cell line HCC38, censored GI50 values
  GI50: 6.11
Cell line HCC70, censored GI50 values
  GI50: 6.75
Cell line HCC202, censored GI50 values
  GI50: 7.23
Cell line HCC1143, censored GI50 values
  GI50: 6.26
Cell line HCC1187, censored GI50 values
  GI50: 6.48
Cell line HCC1395, censored GI50 values
  GI50: 5.61
Cell line HCC1419, censored GI50 values
  GI50: 6.59
Cell line HCC1428, censored GI50 values
  GI50: 6.28
Cell line HCC1500, censored GI50 values
  GI50: 5.71
Cell line HCC1806, censored GI50 values
  GI50: 5.82
Cell line HCC1937, censored GI50 values
  GI50: 6.09
Cell line HCC1954, censored GI50 values
  GI50: 6.63
Cell line HCC2185, censored GI50 values
  GI50: 6.89
Cell line HCC3153, censored GI50 values
  GI50: 5.48
Cell line LY2, censored GI50 values
  GI50: 5.82
Cell line MCF7, censored GI50 values
  GI50: 5.53
Cell line MDAMB134VI, censored GI50 values
  GI50: 6.25
Cell line MDAMB175VII, censored GI50 values
  GI50: 6.18
Cell line MDAMB231, censored GI50 values
  GI50: 5.21
Cell line MDAMB361, censored GI50 values
  GI50: 5.84
Cell line MDAMB436, censored GI50 values
  GI50: 5.88
Cell line MDAMB453, censored GI50 values
  GI50: 6.52
Cell line MDAMB468, censored GI50 values
  GI50: 5.96
Cell line SKBR3, censored GI50 values
  GI50: 6.71
Cell line SUM52PE, censored GI50 values
  GI50: 6.89
Cell line SUM149PT, censored GI50 values
  GI50: 6.01
Cell line SUM159PT, censored GI50 values
  GI50: 6.73
Cell line SUM185PE, censored GI50 values
  GI50: 7.13
Cell line SUM1315MO2, censored GI50 values
  GI50: 6.49
Cell line T47D, censored GI50 values
  GI50: 6.58
Cell line UACC812, censored GI50 values
  GI50: 6.62
Cell line UACC893, censored GI50 values
  GI50: 6.89
Cell line ZR75B, censored GI50 values
  GI50: 6.51
Cell line ZR751, censored GI50 values
  GI50: 5.87
Cell line ZR7530, censored GI50 values
  GI50: 6.82

## CC(=O)Nc1cccc(-n2c(=O)n(C3CC3)c(=O)c3c(Nc4ccc(I)cc4F)n(C)c(=O)c(C)c32)c1.C[S+](C)[O-] [GSK1120212B]
600MPE cell line, censored GI50 values
  GI50: 8.17
BT549 cell line, censored GI50 values
  GI50: 5.17
HCC70 cell line, censored GI50 values
  GI50: 8.18
HCC202 cell line, censored GI50 values
  GI50: 10.23
HCC1395 cell line, censored GI50 values
  GI50: 6.71
HCC1419 cell line, censored GI50 values
  GI50: 7.23
HCC1806 cell line, censored GI50 values
  GI50: 5.08
HCC1954 cell line, censored GI50 values
  GI50: 6.53
MDAMB134VI cell line, censored GI50 values
  GI50: 7.72
MDAMB175VII cell line, censored GI50 values
  GI50: 7.94
MDAMB231 cell line, censored GI50 values
  GI50: 6.86
MDAMB415 cell line, censored GI50 values
  GI50: 6.13
MDAMB453 cell line, censored GI50 values
  GI50: 6.61
SUM149PT cell line, censored GI50 values
  GI50: 7.51
SUM159PT cell line, censored GI50 values
  GI50: 7.93
SUM1315MO2 cell line, censored GI50 values
  GI50: 7.19
Cell line 600MPE
  GI50: 8.17
Cell line AU565
  GI50: 4.82
Cell line BT474
  GI50: 4.78
Cell line BT483
  GI50: 4.78
Cell line BT549
  GI50: 5.17
Cell line CAMA1
  GI50: 4.78
Cell line HCC38
  GI50: 4.78
Cell line HCC70
  GI50: 8.18
Cell line HCC202
  GI50: 10.23
Cell line HCC1187
  GI50: 4.78
Cell line HCC1395
  GI50: 6.71
Cell line HCC1419
  GI50: 7.23
Cell line HCC1428
  GI50: 4.78
Cell line HCC1500
  GI50: 4.78
Cell line HCC1806
  GI50: 5.08
Cell line HCC1937
  GI50: 4.78
Cell line HCC1954
  GI50: 6.53
Cell line HCC2185
  GI50: 4.78
Cell line HCC3153
  GI50: 4.78
Cell line LY2
  GI50: 4.78
Cell line MCF7
  GI50: 4.78
Cell line MDAMB134V
  GI50: 7.72
Cell line MDAMB157
  GI50: 4.78
Cell line MDAMB175V
  GI50: 7.94
Cell line MDAMB231
  GI50: 6.86
Cell line MDAMB361
  GI50: 4.78
Cell line MDAMB415
  GI50: 6.13
Cell line MDAMB436
  GI50: 4.81
Cell line MDAMB453
  GI50: 6.61
Cell line MDAMB468
  GI50: 4.85
Cell line SKBR3
  GI50: 4.78
Cell line SUM52PE
  GI50: 5.06
Cell line SUM149PT
  GI50: 7.51
Cell line SUM159PT
  GI50: 7.93
Cell line SUM185PE
  GI50: 4.78
Cell line SUM1315MO
  GI50: 7.19
Cell line T47D
  GI50: 4.78
Cell line UACC812
  GI50: 4.78
Cell line UACC893
  GI50: 4.81
Cell line ZR75B
  GI50: 4.78
Cell line ZR751
  GI50: 4.78
